This note sets out measurements from US6699834B1, “Method for treating cancer” (University of Maryland Biotechnology Institute, priority 1997, dated 2004).

The test system of one assay is KS Y-1 and KS-SLK cells. Nature of the assay: Kaposi's Sarcoma clonogenic assay in cultured cells. The format is cell-based, human. The conditions noted are these: inhibition of Kaposi's Sarcoma cell growth in vitro in cultured cells. How it is done:
Briefly, the KS Y-1 cells were obtained from mononuclear cells isolated from pleural effusion of an AIDS patient with KS in the lungs. After the depletion of T lymphocytes, monocytes/macrophages and fibroblasts using monoclonal antibodies against CD2, CD3, CD4, CD8, CD10 and CD14 membrane antigens and baby rabbit complement, the cells were cultured in the absence of exogenous growth factors to select for transformed cells. […] Clonogenic assays were performed by seeding the KS Y-1 or KS-SLK cells in methylcellulose (0.8%, v/v), incubating the cells for 10 days in the presence or absence of the hCC, β-hCG or β-hCG peptide preparations and then counting the number of well-formed colonies of triplicate wells formed after seeding with 5×10^4 cells.
To assay for activity against Kaposi's sarcoma cell growth in vitro, the clonogenic assay described herein was used with the KS Y-1 and KS-SLK cultured Kaposi's Sarcoma cell lines,.

A further assay concerns HIV-1. The conditions noted are these: for HIV in vitro Inhibition: inhibition of HIV-1 replication in vitro (HIV-1 strains and HIV-1 primary isolates). An excerpt:
To prepare HIV infected cells for the in vitro assay of hCG preparations and β-hCG peptides and derivatives, primary PBMCs, macrophages, and CD4^+ T cells isolated from peripheral blood and the H9 human T cell line, were acutely or chronically infected with 8 different HIV-1 strains: 4 cell line adapted viruses, namely the macrophage tropic Ba-L strain (Gartner et al., 1986, Science 233:215-219) and the CD4^+ T cell tropic MN, RF, and IIIB strains (10^5 TCID50/ml) (Popovic et al., 1984, Science […]; Gallo et al.; 1984, Science 224:500-503); 2 isolates, Ju1083 and G3, from Nigerian AIDS patients passed once in a CD4^+ T cell line (Sub-T1); and 2 primary (“clinical”) isolates from AIDS patients from Trinidad which were never passed in any cell line and were used at a titer of 7.5×10^4TCID50/ml. In all experiments; HIV1 (10^5 TCID50/ml) was added to the cells(10^6 cells/ml) for a 2 hour incubation after which the virus infected cells were washed with 10 ml phosphate buffered saline (PBS) three times to eliminate extra cellular virus. The test inhibitor, i.e. the hCG or β-hCG peptide preparation was then added and the cells were incubated with the test inhibiter for 9 to 10 days with serial sampling. Cultures were assayed for p24 antigen on days 3 to 10.
Peptides of the α- and β-subunits (0.05 to 50 nmoles/ml), native α chain preparation, and various crude preparations of the native hCG heterodimer (0.01 to 1,000 IU) and the native β-hCG subunit (100 to 1,000 μg) were tested for effects on HIV-1 replication in acutely infected cells-by measuring change in viral antigen levels in response to the above noted preparations (FIGS. 4A-D and Table 3).
The fractions were then tested for anti-HIV, anti-KS and pro-hematopoietic activities in vitro. To assay for inhibition of HIV-1 replication in vitro, the HIV-1 […] viral strain was used to infect PBMCs and PM-1 cells (derived from the HUT-78 T-cell lymphoma cell line) at 10^3 TCID50/ml as described in detail herein.

The subject of assay [1] is hematopoietic progenitor cells. Nature of the assay: Hematopoietic progenitor clonogenic assays (CFU-GEMM, BFU-e, CFU-GM). The class given is cell-based, human. The conditions noted are these: relative increase of hematopoietic colony cell number; hCG preparations 200 IU/ml, subunits and peptides 100 μg/ml. How it is done: The effect of hCG preparations and peptides was assayed on hematopoietic progenitor cells in vitro: Hematopoietic progenitor cells (2×10^5 cell/ml) were isolated from normal bone marrow and cord blood and seeded in methylcellulose. […] The hCG preparations were administered at 200 IU/ml and the β- and α-subunits and peptides were administered at 100 μg/ml. The native commercial preparation of hCG (APL™, Wyeth Ayerst) was pre-tested for anti-HIV and anti-KS activities. Aggregates containing more than 50 cells after 10 days of culture were counted as colonies.

With “38. 41-61: α-hCG amino acids 41-61 (LRSKKTMLVQKNVTSESTCCV; UniProt P01215 65-85, looked up, fragment)”, in the assay on KS Y-1 and KS-SLK cells, the KS in vitro result is recorded as “− (“−” represents less than 10% effect)”. For the same compound, the “HIV in vitro Inhibition” value in the assay on HIV-1 is “− (“−” represents less than 10% effect)”.
Turning to “16. 31-50: β-hCG amino acids 31-50 (TTICAGYCPTMTRVLQGVLP; UniProt P0DN86 51-70, looked up, fragment)”, the KS in vitro entry in the assay on KS Y-1 and KS-SLK cells was “− (“−” represents less than 10% effect)”. Further, in assay [1], the “Pro-hematopoiesis in vitro Enhancement” value is reported as “− (“−” represents less than 10% effect)”. In addition, the “HIV in vitro Inhibition” value in the assay with HIV-1 is recorded as “− (“−” represents less than 10% effect)”.
For the compound “22. 7-40: β-hCG amino acids 7-40 (SEQ ID NO:33) (PRCRPINATLAVEKEGCPVCITVNTTICAGYCPT)”, the KS in vitro entry in the assay on KS Y-1 and KS-SLK cells is given as “+ (“+” represents greater than 15% effect)”. The “Pro-hematopoiesis in vitro Enhancement” value in assay [1] is “− (“−” represents less than 10% effect)”. Moreover, in the assay with HIV-1, the “inhibition of HIV-1 infection/replication in vitro (in words)” value is recorded as “inhibited HIV-1 replication” and the “HIV in vitro Inhibition” value is “+ (“+” represents greater than 15% effect)”.
On to “34. 88-92: α-hCG amino acids 88-92 (YYHKS; UniProt P01215 112-116, looked up, fragment)”, for which the KS in vitro entry with KS Y-1 and KS-SLK cells is “− (“−” represents less than 10% effect)”. For the same compound, in the assay with HIV-1, the “inhibition of HIV-1 infection/replication in vitro (in words)” value was “little or no effect” and the “HIV in vitro Inhibition” value is “− (“−” represents less than 10% effect)”.
For “36. 16-30: α-hCG amino acids 16-30 (PFFSQPGAPILQCMG; UniProt P01215 40-54, looked up, fragment)”, the KS in vitro entry with KS Y-1 and KS-SLK cells is “− (“−” represents less than 10% effect)”. For the same compound, the “Pro-hematopoiesis in vitro Enhancement” value in assay [1] was “− (“−” represents less than 10% effect)”. The “HIV in vitro Inhibition” value in the assay on HIV-1 is on record as “− (“−” represents less than 10% effect)”.
Take “20. 110-145: β-hCG amino acids 110-145 (CDDPRFQDSSSSKAPPPSLPSPSRLPGPSDTPILPQ; UniProt P0DN86 130-165, looked up, fragment)”: the KS in vitro result with KS Y-1 and KS-SLK cells is listed as “− (“−” represents less than 10% effect)”. Further, in assay [1], the “Pro-hematopoiesis in vitro Enhancement” value is “− (“−” represents less than 10% effect)”.
Consider “27. 100-110: β-hCG amino acids 100-110 (CGGPKDHPLTC; UniProt P0DN86 120-130, looked up, fragment)”, for which the KS in vitro result in the assay with KS Y-1 and KS-SLK cells is listed as “− (“−” represents less than 10% effect)”. In the assay on HIV-1, the “HIV in vitro Inhibition” value is on record as “− (“−” represents less than 10% effect)”.
Regarding “17. 46-65: β-hCG amino acids 46-65 (SEQ ID NO:34) (QGVLPALPQVVCNYRDVRFE)”, in the assay on KS Y-1 and KS-SLK cells, the KS in vitro entry was “+ (“+” represents greater than 15% effect)”. In the assay with HIV-1, the “inhibition of HIV-1 infection/replication in vitro (in words)” value was “inhibited HIV-1 replication” and the “HIV in vitro Inhibition” value is listed as “+ (“+” represents greater than 15% effect)”.
Turning to “37. 26-45: α-hCG amino acids 26-45 (LQCMGCCFSRAYPTPLRSKK; UniProt P01215 50-69, looked up, fragment)”, the KS in vitro entry with KS Y-1 and KS-SLK cells was “− (“−” represents less than 10% effect)”. Moreover, the “Pro-hematopoiesis in vitro Enhancement” value in assay [1] was “− (“−” represents less than 10% effect)”. The “HIV in vitro Inhibition” value with HIV-1 is “− (“−” represents less than 10% effect)”.
Consider `Oc1ccccc1` [phenol, reference compound], for which the “inhibition of HIV-1 infection/replication in vitro (in words)” value with HIV-1 is on record as “no effect on HIV-1 replication”.
Consider “23. 57-93: β-hCG amino acids 57-93 (CNYRDVRFESIRLPGCPRGVNPVVSYAVALSCQCALC; UniProt P0DN86 77-113, looked up, fragment)”, for which the KS in vitro entry in the assay on KS Y-1 and KS-SLK cells was “− (“−” represents less than 10% effect)”. For the same compound, in assay [1], the “Pro-hematopoiesis in vitro Enhancement” value is “− (“−” represents less than 10% effect)”. Further, in the assay on HIV-1, the “HIV in vitro Inhibition” value is recorded as “− (“−” represents less than 10% effect)”.
For “29. 128-145: β-hCG amino acids 128-145 (LPSPSRLPGPSDTPILPQ; UniProt P0DN86 148-165, looked up, fragment)”, the KS in vitro result in the assay with KS Y-1 and KS-SLK cells was “− (“−” represents less than 10% effect)”. Also, in assay [1], the “Pro-hematopoiesis in vitro Enhancement” value is recorded as “−V (“−” represents less than 10% effect)”. In addition, the “HIV in vitro Inhibition” value with HIV-1 is reported as “− (“−” represents less than 10% effect)”.
In the case of 25. 123-145: β-hCG amino acids 123-145, in the assay with KS Y-1 and KS-SLK cells, the KS in vitro result is “− (“−” represents less than 10% effect)”. In addition, the “HIV in vitro Inhibition” value in the assay with HIV-1 was “− (“−” represents less than 10% effect)”.
Consider “14. 1-20: β-hCG amino acids 1-20 (SKEPLRPRCRPINATLAVEK; UniProt P0DN86 21-40, looked up, fragment)”, for which, in the assay on KS Y-1 and KS-SLK cells, the KS in vitro result is “− (“−” represents less than 10% effect)”. In addition, in the assay with HIV-1, the “HIV in vitro Inhibition” value is given as “− (“−” represents less than 10% effect)”.
With “28. 113-132: β-hCG amino acids 113-132 (PRFQDSSSSKAPPPSLPSPS; UniProt P0DN86 133-152, looked up, fragment)”, the KS in vitro result in the assay with KS Y-1 and KS-SLK cells was “− (“−” represents less than 10% effect)”. In assay [1], the “Pro-hematopoiesis in vitro Enhancement” value was “− (“−” represents less than 10% effect)”.
“39. 57-76: α-hCG amino acids 57-76 (STCCVAKSYNRVTVMGGFKV; UniProt P01215 81-100, looked up, fragment)”: the KS in vitro entry with KS Y-1 and KS-SLK cells is “− (“−” represents less than 10% effect)”. Moreover, the “HIV in vitro Inhibition” value with HIV-1 is listed as “− (“−” represents less than 10% effect)”.
For the compound “31. 51-59: β-hCG amino acids 51-59 (ALPQVVCNY; UniProt P0DN86 71-79, looked up, fragment)”, in the assay on KS Y-1 and KS-SLK cells, the KS in vitro entry was “− (“−” represents less than 10% effect)”. For the same compound, in assay [1], the “Pro-hematopoiesis in vitro Enhancement” value was “− (“−” represents less than 10% effect)”. Also, the “HIV in vitro Inhibition” value with HIV-1 is “− (“−” represents less than 10% effect)”.
As for “24. 34-39: β-hCG amino acids 34-39 (CAGYCP; UniProt P0DN86 54-59, looked up, fragment)”, the KS in vitro result in the assay with KS Y-1 and KS-SLK cells was “− (“−” represents less than 10% effect)”. The “HIV in vitro Inhibition” value in the assay with HIV-1 is given as “− (“−” represents less than 10% effect)”.
Regarding “21. 74-95: β-hCG amino acids 74-95 (RGVNPVVSYAVALSCQCALCRR; UniProt P0DN86 94-115, looked up, fragment)”, the KS in vitro result with KS Y-1 and KS-SLK cells is reported as “− (“−” represents less than 10% effect)”. Besides, the “Pro-hematopoiesis in vitro Enhancement” value in assay [1] is on record as “− (“−” represents less than 10% effect)”. The “HIV in vitro Inhibition” value in the assay on HIV-1 is “− (“−” represents less than 10% effect)”.
Turning to “18. 91-112: β-hCG amino acids 91-112 (ALCRRSTTDCGGPKDHPLTCDD; UniProt P0DN86 111-132, looked up, fragment)”, the KS in vitro entry in the assay on KS Y-1 and KS-SLK cells is reported as “− (“−” represents less than 10% effect)”. Besides, the “Pro-hematopoiesis in vitro Enhancement” value in assay [1] was “− (“−” represents less than 10% effect)”.
As to “40. 72-92: α-hCG amino acids 72-92 (GGFKVENHTACHCSTCYYHKS; UniProt P01215 96-116, looked up, fragment)”, the KS in vitro result in the assay on KS Y-1 and KS-SLK cells was “− (“−” represents less than 10% effect)”. Also, the “Pro-hematopoiesis in vitro Enhancement” value in assay [1] is reported as “− (“−” represents less than 10% effect)”. Moreover, the “HIV in vitro Inhibition” value in the assay on HIV-1 was “− (“−” represents less than 10% effect)”.
Consider “19. 93-100: β-hCG amino acids 93-100 (CRRSTTDC; UniProt P0DN86 113-120, looked up, fragment)”, for which, in the assay on KS Y-1 and KS-SLK cells, the KS in vitro result is given as “− (“−” represents less than 10% effect)”. For the same compound, in the assay on HIV-1, the “HIV in vitro Inhibition” value was “− (“−” represents less than 10% effect)”.
Take 26. 134-144: β-hCG amino acids 134-144: the KS in vitro entry in the assay with KS Y-1 and KS-SLK cells is “− (“−” represents less than 10% effect)”. Besides, the “Pro-hematopoiesis in vitro Enhancement” value in assay [1] was “− (“−” represents less than 10% effect)”. Further, in the assay with HIV-1, the “HIV in vitro Inhibition” value was “− (“−” represents less than 10% effect)”.
